The values that follow come from ChEMBL document CHEMBL1131296 (J Med Chem, 1998).

For experiment [1], the target named is T1, 5-hydroxytryptamine receptor 1A (Homo sapiens, UniProt P08908).
T1 sequence (P08908 whole entry): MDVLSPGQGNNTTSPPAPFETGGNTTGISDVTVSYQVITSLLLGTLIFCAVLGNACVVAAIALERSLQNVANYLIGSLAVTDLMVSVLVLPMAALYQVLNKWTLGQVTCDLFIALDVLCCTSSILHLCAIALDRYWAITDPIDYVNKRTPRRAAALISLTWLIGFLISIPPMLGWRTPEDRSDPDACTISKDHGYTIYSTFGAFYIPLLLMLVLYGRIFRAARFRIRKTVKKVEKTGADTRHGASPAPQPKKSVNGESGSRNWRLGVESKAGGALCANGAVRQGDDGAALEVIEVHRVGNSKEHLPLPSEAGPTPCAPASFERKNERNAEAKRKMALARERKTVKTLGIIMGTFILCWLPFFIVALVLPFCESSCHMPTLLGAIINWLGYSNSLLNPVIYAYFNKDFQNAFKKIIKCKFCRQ
In words: Binding affinity at human cloned 5-hydroxytryptamine 1A receptor expressed in HeLa cells by [3H]8-hydroxy-2-(di-n-propylamino)tetraline displacement. The class given is cell-based.

For experiment [2], the target named is T2, Alpha-1D adrenergic receptor (Rattus norvegicus, UniProt P23944).
T2 sequence (P23944 whole entry): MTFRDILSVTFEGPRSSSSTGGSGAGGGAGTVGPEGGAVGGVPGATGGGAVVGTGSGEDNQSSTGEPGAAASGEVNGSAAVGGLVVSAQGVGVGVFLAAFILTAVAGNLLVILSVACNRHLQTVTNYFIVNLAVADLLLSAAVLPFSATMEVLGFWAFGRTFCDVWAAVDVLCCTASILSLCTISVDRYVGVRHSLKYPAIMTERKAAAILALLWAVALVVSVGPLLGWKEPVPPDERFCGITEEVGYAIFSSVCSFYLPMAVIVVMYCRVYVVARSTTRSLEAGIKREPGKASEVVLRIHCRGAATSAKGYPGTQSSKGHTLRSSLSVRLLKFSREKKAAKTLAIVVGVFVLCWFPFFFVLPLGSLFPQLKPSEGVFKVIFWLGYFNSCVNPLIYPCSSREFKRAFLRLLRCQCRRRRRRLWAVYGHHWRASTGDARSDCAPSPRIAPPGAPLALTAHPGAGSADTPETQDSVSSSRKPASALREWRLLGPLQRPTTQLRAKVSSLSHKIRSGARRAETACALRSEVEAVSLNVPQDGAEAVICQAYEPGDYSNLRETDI
The experiment in a line: Antagonism of norepinephrine induced contraction of rat isolated thoracic aorta. The experiment is classed as functional, tissue-based. As to conditions: read-out: pA2 (converted).

The target in experiment [3] is T3, Alpha-1B adrenergic receptor (Rattus norvegicus, UniProt P15823).
T3 sequence (P15823 whole entry): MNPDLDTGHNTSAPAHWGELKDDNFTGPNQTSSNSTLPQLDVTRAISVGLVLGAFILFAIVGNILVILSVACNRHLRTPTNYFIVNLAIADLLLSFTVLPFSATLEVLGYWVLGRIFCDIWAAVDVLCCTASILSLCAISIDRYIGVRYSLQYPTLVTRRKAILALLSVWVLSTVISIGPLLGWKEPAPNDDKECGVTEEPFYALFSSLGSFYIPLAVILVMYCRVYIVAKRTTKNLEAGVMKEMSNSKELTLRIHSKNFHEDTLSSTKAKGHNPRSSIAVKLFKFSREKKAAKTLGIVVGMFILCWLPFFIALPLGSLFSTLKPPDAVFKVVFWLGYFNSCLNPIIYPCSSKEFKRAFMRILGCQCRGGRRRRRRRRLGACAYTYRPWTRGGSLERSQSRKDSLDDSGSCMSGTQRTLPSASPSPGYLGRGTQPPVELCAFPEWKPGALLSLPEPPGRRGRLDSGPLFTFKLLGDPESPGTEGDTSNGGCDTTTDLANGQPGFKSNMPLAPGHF
In words: Antagonism of phenylephrine stimulated contraction of the rat isolated spleen. As to conditions: read-out: pA2 (converted). The class given is functional, tissue-based.

A further experiment addresses D(2) dopamine receptor (Rattus norvegicus, UniProt P61169). The experiment in a line: Binding affinity at native Dopamine receptor D2 in rat striatum by [3H]spiperone displacement. The experiment is classed as tissue-based.
Experiment [4] concerns the target T4, Alpha-1B adrenergic receptor (Homo sapiens, UniProt P35368).
T4 sequence (P35368 whole entry): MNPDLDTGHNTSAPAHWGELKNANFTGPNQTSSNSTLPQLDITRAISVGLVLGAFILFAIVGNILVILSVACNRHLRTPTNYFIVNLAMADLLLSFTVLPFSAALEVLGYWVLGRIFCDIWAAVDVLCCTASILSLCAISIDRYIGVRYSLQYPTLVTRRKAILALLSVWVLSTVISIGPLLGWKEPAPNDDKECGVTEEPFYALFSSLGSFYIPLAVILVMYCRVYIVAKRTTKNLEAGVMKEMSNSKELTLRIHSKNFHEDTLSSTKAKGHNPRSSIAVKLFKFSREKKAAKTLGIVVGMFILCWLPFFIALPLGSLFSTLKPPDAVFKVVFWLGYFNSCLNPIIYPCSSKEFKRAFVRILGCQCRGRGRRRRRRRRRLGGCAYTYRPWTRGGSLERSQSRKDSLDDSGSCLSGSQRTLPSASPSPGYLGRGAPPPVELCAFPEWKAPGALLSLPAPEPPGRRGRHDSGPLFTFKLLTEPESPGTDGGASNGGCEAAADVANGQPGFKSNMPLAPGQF
The experiment in a line: Binding affinity at human cloned Alpha-1B adrenergic receptor in chinese hamster ovary cells by [3H]prazosin displacement. The class given is cell-based, CHO.

SMILES strings stand for the structures.

Sequence of D(2) dopamine receptor (P61169 whole entry): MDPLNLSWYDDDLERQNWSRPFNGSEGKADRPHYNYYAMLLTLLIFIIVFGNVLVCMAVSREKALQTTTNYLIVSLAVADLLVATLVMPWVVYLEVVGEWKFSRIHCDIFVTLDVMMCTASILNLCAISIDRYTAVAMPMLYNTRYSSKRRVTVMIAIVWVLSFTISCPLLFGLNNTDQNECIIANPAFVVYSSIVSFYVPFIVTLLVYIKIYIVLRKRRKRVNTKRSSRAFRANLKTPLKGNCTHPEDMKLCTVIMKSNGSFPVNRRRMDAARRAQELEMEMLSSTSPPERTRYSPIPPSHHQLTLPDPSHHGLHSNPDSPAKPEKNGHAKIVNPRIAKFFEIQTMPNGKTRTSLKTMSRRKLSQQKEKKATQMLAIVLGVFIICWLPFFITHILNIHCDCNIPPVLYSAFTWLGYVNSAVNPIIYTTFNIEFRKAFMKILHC

Usually Ki stands for a measure of affinity in units of concentration, obtained from inhibition or displacement. Low values mean tighter binding, high ones weaker binding. Regarding `COc1cc2nc(N(C)CCCCCCN(C)C(=O)c3cccc(CN(C)C)c3)nc(N)c2cc1OC`, the Ki is 741 nM in experiment [1], 1950 nM at D(2) dopamine receptor and 0.166 nM in experiment [4]. The Kb in experiment [2] was 5.5 nM; in experiment [3] it was 37.2 nM.
